Measurements published in patent US10479814B2, “Adenosine receptor activation reagent and the uses of thereof” (Zhejiang Subtropical Crops Research Institute, priority 2014, dated 2019).
“Also recorded” adds a separate entry of the source.

Tests used:
Format in all cases: in vivo
[1] = tested on: ICAM-1 mRNA in mouse renal cortex; test: kidney ischemia reperfusion: real time quantitative PCR of ICAM-1; conditions: vs IR group; HEA 5, 7.5, 10 mg/kg; DPCPX 1 mg/kg; DPCPX 1 mg/kg+HEA
Method: (§1) Male C57BL/6 mice 20-25 g, after one week of adaptive feeding to the animals, were randomly divided into eight groups: sham-operation group, IR group, HEA 5 mg/kg group, HEA 7 mg/kg group, HEA 10 mg/kg group, DPCPX (1 mg/kg) group, DPCPX (1 mg/kg)+HEA (5 mg/kg) group and DPCPX (1 mg/kg)+HEA (7.5 mg/kg) group. […]
(§2) The MPO analysis was conducted according to the specification in the kit. 9.2.6 Real time quantitative PCR analysis of gene expression of ICAM-1, TNF-α and IL-1β; the sequence of primer used in RT-PCR reaction system is as follow:
(§3) PCR amplification reaction system: IQ SYBR Green Super mix 12.5 μL, Forward primer (10 μmo/L) 1 μL, Reverse primer (10 μmol/L) 1 μL, cDNA (water was added to dilute to same level) 10.5 μL. […] The statistics and calculation of experiment results was automatically conducted fluorescence quantitative PCR analyzing software BIO-RAD CFX Manager. Target gene mRNA expression level was calculated by 2-ΔΔCt method, and standardized using the GAPDH mRNA in corresponding specimen a standard.

[2] = tested on: IL-1β mRNA in mouse renal cortex; test: kidney ischemia reperfusion: real time quantitative PCR of IL-1β; conditions: vs IR group; HEA 5, 7.5, 10 mg/kg; DPCPX 1 mg/kg; DPCPX 1 mg/kg+HEA
Method: as §1, §2, §3

[3] = tested on: mouse kidney ischemia reperfusion; test: kidney ischemia reperfusion: apoptosis by TUNEL method; conditions: vs IR group, DPCPX 1 mg/kg; for renal tubular epithelial cell apoptosis number (TUNEL×400): HEA treated group, DPCPX+HEA
Method: Male C57BL/6 mice 20-25 g, after one week of adaptive feeding to the animals, were randomly divided into eight groups: sham-operation group, IR group, HEA 5 mg/kg group, HEA 7 mg/kg group, HEA 10 mg/kg group, DPCPX (1 mg/kg) group, DPCPX (1 mg/kg)+HEA (5 mg/kg) group and DPCPX (1 mg/kg)+HEA (7.5 mg/kg) group.
The mouse was weighed before operation, then peritoneally injected with pentobarbital sodium 50 mg/kg to anaesthetize the mouse, abdomen was opened by ventromedial incision, blunt dissection and the kidney pedicle was sufficiently exposed, renal ischemia was induced by clapping two side kidney pedicle with non-invasive bulldog clamp, the color of kidney change from bright red to purple black immediately, determination method of success of the experiment model can refer to the methods in literature 7 and 8. At time of 30 min of ischemia the bulldog clamp was loosened, the perfuse was restored, the color of kidney changed gradually from dark red to bright red, showing re perfusion was successful. The wound was stitched. The animals were freely fed water and food.
In the sham-operation group, the mice only received operation of abdomen open, kidney pedicle and abdomen suture. The kidney IR mode were made for the mice in the remaining groups. In each drug group, before 15 minute of ischemia, the drug with corresponding concentration was speritoneally injected, in drug combination group, 15 minutes before ischemia, the drugs were given simultaneously.
Fetching a part of the stored kidney tissue, conventional paraffin embedded 4 μm of section. Operate according to the method of the specification in kit. […] Randomly selecting 10 400-fold visual fields, calculate apoptosis index AI %=positive cell number/total number of all cell in the visual field×100%.

[4] = tested on: mouse kidney ischemia reperfusion; test: kidney ischemia reperfusion: kidney function test (Scr, BUN); conditions: for serum BUN level / serum Scr level: 24 h after ischemia reperfusion, vs IR group, ip pretreatment, HEA 5, 7.5, 10 mg/kg, DPCPX 1 mg/kg, DPCPX 1 mg/kg+HEA 7.5 mg/kg
Method: Male C57BL/6 mice 20-25 g, after one week of adaptive feeding to the animals, were randomly divided into eight groups: sham-operation group, IR group, HEA 5 mg/kg group, HEA 7 mg/kg group, HEA 10 mg/kg group, DPCPX (1 mg/kg) group, DPCPX (1 mg/kg)+HEA (5 mg/kg) group and DPCPX (1 mg/kg)+HEA (7.5 mg/kg) group. The mouse was weighed before operation, then peritoneally injected with pentobarbital sodium 50 mg/kg to anaesthetize the mouse, abdomen was opened by ventromedial incision, blunt dissection and the kidney pedicle was sufficiently exposed, renal ischemia was induced by clapping two side kidney pedicle with non-invasive bulldog clamp, the color of kidney change from bright red to purple black immediately, determination method of success of the experiment model can refer to the methods in literature 7 and 8. At time of 30 min of ischemia the bulldog clamp was loosened, the perfuse was restored, the color of kidney changed gradually from dark red to bright red, showing re perfusion was successful. The wound was stitched. The animals were freely fed water and food. In the sham-operation group, the mice only received operation of abdomen open, kidney pedicle and abdomen suture. The kidney IR mode were made for the mice in the remaining groups. In each drug group, before 15 minute of ischemia, the drug with corresponding concentration was speritoneally injected, in drug combination group, 15 minutes before ischemia, the drugs were given simultaneously. At 24 hours after Reperfussion, the mouse was again anaesthetized, obtaining the venous blood. Using full-automatic biochemical analysis systems (Dimension Xpand plus, from Siemens AG), the Scr (serum creatinine) and BUN (blood urea nitrogen) levels were detected respectively by chrysolepic acid rate method and enzymatic rate.

[5] = tested on: rat middle cerebral artery distal obstruction cerebral ischemia model; test: dMCAO cerebral ischemia: brain histomorphological staining HE
Method: Using rat middle cerebral artery distal obstruction cerebral ischemia model. (1) according to rat weight, 10% chloral hydrate (3 ml/kg) was peritoneally injected to anaesthetize. (2) the rat lie on right side and fixed, 1 cm skin incision was cut at connection of inner canthus with external canal, fascia was isolated, muscle tissue, the skull was exposed; (3) a small amount of normal saline was sucked with cotton ball to wipe the skull to ac clear view; (4) fascia was isolated under operating microscope, and the skull was exposed, a hole with diameter of 2 mm circular was drilled at a sute 1/3 of spine; (5) the excess bone debris was washed by a small amount of normal saline, the meninge was push aside, and the middle cerebral artery MCA was exposed; (6) the rat lie in supine position and fixed, an incision was made along middle of throat, and arteria carotis communis CCA on both sides were isolate, pass through with a surgical suture, not ligated temporarily; (7) the MCA was found under operating microscope, burned by a monopolar coagulator, then wash and colled with normal saline; (8) immediately after coagulation, the arteria carotis communis on both sides was ligated, and blocked for 60 min; (9) the wound on head was stitched, after 1 hour the arteria carotis communis on both sides was […], and the skin was stitched, thus the modeling was complete. […]

| SMILES | ICAM-1 mRNA expression in renal cortex [1] | IL-1β mRNA expression in renal cortex [2] | renal tubular epithelial cell apoptosis number (TUNEL×400) [3] | serum BUN level [4] | serum Scr level [4] | effect of DPCPX on brain protective effect of HEA (HE staining) ([5]; DPCPX 1 mg/kg ip + HEA 7.5 mg/kg ip) | TUNEL apoptosis index ([3]; P<0.01, HEA 5, 7.5, 10 mg/kg, DPCPX 1 mg/kg+HEA 5 or 7.5 mg/kg) | protective effect to mouse kidney ischemia reperfusion impairment ([4]; by serum Scr and BUN level and kidney histopathological change) | brain histomorphology (HE staining) ([5]; dMCAO rat, HEA 7.5 mg/kg ip, vs model group) |
| --- | --- | --- | --- | --- | --- | --- | --- | --- | --- |
| CCCn1c(=O)c2[nH]c(C3CCCC3)nc2n(CCC)c1=O [DPCPX, reference compound] | not statistically significant | significantly increase | significantly increased | significantly increase | significantly increase | blocking the brain protective effect of the HAE | – | – | – |
| OCCNc1ncnc2c1ncn2[C@@H]1O[C@H](CO)[C@@H](O)[C@H]1O [HEA, N(6)-(2-hydroxyethyl)-adenosine] | significantly reduce the high expression | significantly reduce the high expression | apoptosis number is reduced | significantly reduce | significantly reduce | – | significantly less than IR group | has protective effect to mouse kidney ischemia reperfusion impairment | reduce the cerebral cortex tissue structure loosening caused by ischemia; also recorded: improve cell swelling degree and nuclear aberration, and increases cell number |
